Experimental data: patent US20230086702A1, “SUBSTITUTED 2-AMINO-PYRAZOLYL-[1,2,4]TRIAZOLO[1,5A]PYRIDINE DERIVATIVES AND USE THEREOF” (The Johns Hopkins University, priority 2019, published 2023)
pIC50: −log10 of the molar value.

Columns and labels:
DLK = target: T1, DLK (Homo sapiens, UniProt Q12852); assay: DLK biochemical assay (TR-FRET, MKK7 phosphorylation); settings: DLK catalytic domain, MKK7 substrate, 60 μM ATP
T1 construct: 10 nM DLK, catalytic domain, Carna Biosiences; purchased Carna Biosciences ('Carna Biosiences' [sic])
T1 sequence (Q12852 125-366 limits assumed): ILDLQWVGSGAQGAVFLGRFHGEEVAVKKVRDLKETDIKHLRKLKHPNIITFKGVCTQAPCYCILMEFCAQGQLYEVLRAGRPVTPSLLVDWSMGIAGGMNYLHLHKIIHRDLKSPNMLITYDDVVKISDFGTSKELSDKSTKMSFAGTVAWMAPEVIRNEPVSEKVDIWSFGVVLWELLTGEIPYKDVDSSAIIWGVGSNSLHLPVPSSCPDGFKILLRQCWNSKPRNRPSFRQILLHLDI
Experimental: (§1) DLK assay is a biochemical assay format designed to screen for inhibitors of DLK. Enzymatic activity of DLK is measured by monitoring phosphorylation of the physiological substrate MKK7 (MAP2K7, Dual specificity mitogen-activated protein kinase kinase 7). Phosphorylation is detected by a TR-FRET system whereby His-tagged MKK7 is labeled by a XL665-labeled anti-His antibody (FRET acceptor, emission 665 nm). DLK phosphorylates MKK7 at T275/S277, which is detected by an Eu-labeled anti-phospho-MKK7 (T275/S277) antibody (FRET donor, excitation 340 nm). Phosphorylation of MKK7 results in an increased TR-FRET signal (Ratio XL665-channel/Eu-channel) and inhibition of enzymatic activity of DLK decreases the TR-FRET signal.
All indicated concentrations are final concentrations.
(§2) Detection buffer: 25 mM Tris/HCl pH 7.5, 100 mM EDTA, 100 mM NaCl, 200 mM KF, 0.01% Tween 20, 1:500 Smart Block.

LZK = target: T2, LZK (Homo sapiens, UniProt O43283); assay: LZK biochemical assay (TR-FRET, MKK7 phosphorylation); settings: LZK catalytic domain, MKK7 substrate, 15 μM ATP
T2 construct: 10 nM LZK, catalytic domain, Carna Biosiences in assay buffer; purchased Carna Biosciences ('Carna Biosiences' [sic])
T2 sequence (O43283 168-409 limits assumed): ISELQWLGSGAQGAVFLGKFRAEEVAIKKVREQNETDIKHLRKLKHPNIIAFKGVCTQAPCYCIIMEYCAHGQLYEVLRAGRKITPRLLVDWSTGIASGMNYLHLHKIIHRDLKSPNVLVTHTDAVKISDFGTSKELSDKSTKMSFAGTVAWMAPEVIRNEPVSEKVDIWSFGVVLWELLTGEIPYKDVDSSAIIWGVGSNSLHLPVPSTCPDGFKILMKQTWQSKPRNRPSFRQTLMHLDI
Experimental: as §1, with “LZK” for “DLK”, “LZK.” for “DLK.”, “T275/S277” for “T275/S277,”
All indicated concentrations final concentrations.
as §2

SMILES | pIC50 (DLK) | pIC50 (LZK)
CCC(c1ccnc(C(F)(F)F)c1)n1cc(-c2cc(C(=O)N[C@@H](C)CC)n3nc(N)nc3c2)cn1 (mixture of isomers) [Example I-122, 2-Amino-N-[(2S)-butan-2-yl]-7-(1-{1-[2-(trifluoromethyl)pyridin-4-yl]propyl}-1H-pyrazol-4-yl)[1,2,4]triazolo[1,5-a]pyridine-5-carboxamide] | 8.46 | 8.13
CC[C@H](C)NC(=O)c1cc(-c2cnn(C(c3c(F)cncc3F)C(C)C)c2)cc2nc(N)nn12 (mixture of isomers) [Example I-123, 2-Amino-N-[(2S)-butan-2-yl]-7-{1-[1-(3,5-difluoropyridin-4-yl)-2-methylpropyl]-1H-pyrazol-4-yl}[1,2,4]triazolo[1,5-a]pyridine-5-carboxamide] | 8.23 | 6.77
CC[C@H](C)NC(=O)c1cc(-c2cnn(C(c3ccnc(OC)c3)C(C)C)c2)cc2nc(N)nn12 (mixture of isomers) [Example I-126, 2-Amino-N-[(2S)-butan-2-yl]-7-{1-[1-(2-methoxypyridin-4-yl)-2-methylpropyl]-1H-pyrazol-4-yl}[1,2,4]triazolo[1,5-a]pyridine-5-carboxamide] | 9.70 | 8.89
CCC(c1ccc(Cl)s1)n1cc(-c2cc(C(=O)N[C@@H](C)CC)c3nc(N)nn3c2)cn1 (mixture of isomers) [Example I-129, 2-Amino-N-[(2S)-butan-2-yl]-6-{1-[1-(5-chloro-2-thienyl)propyl]-1H-pyrazol-4-yl}[1,2,4]triazolo[1,5-a]pyridine-8-carboxamide] | 8.47 | 7.41
C[C@@H](CF)NC(=O)c1cc(-c2cnn(C3CCOc4ccccc43)c2)cn2nc(N)nc12 (mixture of isomers) [Example I-143, 2-Amino-6-{1-[3,4-dihydro-2H-1-benzopyran-4-yl]-1H-pyrazol-4-yl}-N-[1-fluoropropan-2-yl][1,2,4]triazolo[1,5-a]pyridine-8-carboxamide] | 7.48 | 7.82
Nc1nc2c(C(=O)NC3CNC(=O)C3)cc(-c3cnn(Cc4ccc(F)cc4)c3)cn2n1 (racemic) [Example I-136, 2-Amino-6-[1-(4-fluorobenzyl)-1H-pyrazol-4-yl]-N-(5-oxopyrrolidin-3-yl)[1,2,4]triazolo[1,5-a]pyridine-8-carboxamide] | 7.64 | 6.68
CC(CF)NC(=O)c1cc(-c2cnn(CC3CC3)c2)cn2nc(N)nc12 (racemic) [Example I-137, 2-Amino-6-[1-(cyclopropylmethyl)-1H-pyrazol-4-yl]-N-[1-fluoropropan-2-yl][1,2,4]triazolo[1,5-a]pyridine-8-carboxamide] | 6.85 | 6.82
CC(CF)NC(=O)c1cc(-c2cnn(Cc3cccc4cn[nH]c34)c2)cn2nc(N)nc12 (racemic) [Example I-138, 2-Amino-N-(1-fluoropropan-2-yl)-6-{1-[(1H-indazol-7-yl)methyl]-1H-pyrazol-4-yl} [1,2,4]triazolo[1,5-a]pyridine-8-carboxamide] | 8.52 | 6.72

Results, then the compound that gave them:

pIC50 (DLK) | pIC50 (LZK) | SMILES
7.08 | 7.10 | CC(CF)NC(=O)c1cc(-c2cnn(C3CCOc4ccccc43)c2)cn2nc(N)nc12 (mixture of isomers) [Example I-144, 2-Amino-6-{1-(3,4-dihydro-2H-1-benzopyran-4-yl)-1H-pyrazol-4-yl}-N-[1-fluoropropan-2-yl][1,2,4]triazolo[1,5-a]pyridine-8-carboxamide]
8.41 | 7.60 | CCC(c1ccc(C(F)(F)F)nc1)n1cc(-c2cc(C(=O)NC(C)CF)c3nc(N)nn3c2)cn1 (mixture of isomers) [Example I-147]
8.80 | 7.49 | CC[C@@H](c1ccc(F)cc1)n1cc(-c2cc(C(=O)NC(C)CF)n3nc(N)nc3c2)cn1 (mixture of isomers) [Example I-148, 2-Amino-7-{1-[(1S)-1-(4-fluorophenyl)propyl]-1H-pyrazol-4-yl}-N-(1-fluoropropan-2-yl)[1,2,4]triazolo[1,5-a]pyridine-5-carboxamide]
8.16 | 8.01 | CCC(c1ccc(C(F)(F)F)nc1)n1cc(-c2cc(C(=O)N[C@@H](C)CO)c3nc(N)nn3c2)cn1 (mixture of isomers) [Example I-151, 2-Amino-N-[(2S)-1-hydroxypropan-2-yl]-6-(1-{1-[6-(trifluoromethyl)pyridin-3-yl]propyl}-1H-pyrazol-4-yl)[1,2,4]triazolo[1,5-a]pyridine-8-carboxamide]
8.96 | 8.34 | C[C@@H](CO)NC(=O)c1cc(-c2cnn(C(c3ccc(C(F)(F)F)nc3)C3CCOCC3)c2)cn2nc(N)nc12 (mixture of isomers) [Example I-154, 2-Amino-N-[(25)-1-hydroxypropan-2-yl]-6-(1-{tetrahydro-2H-pyran-4-yl[6-(trifluoromethyl)pyridin-3-yl]methyl}-1H-pyrazol-4-yl)[1,2,4]triazolo[1,5-a]pyridine-8-carboxamide]
8.24 | 7.89 | CCC(c1ccc(OC(F)(F)F)nc1)n1cc(-c2cc(C(=O)N[C@@H](C)CO)c3nc(N)nn3c2)cn1 (mixture of isomers) [Example I-157, 2-Amino-N-[(2S)-1-hydroxypropan-2-yl]-6-(1-{1-[6-(trifluoromethoxy)pyridin-3-yl]propyl}-1H-pyrazol-4-yl)[1,2,4]triazolo[1,5-a]pyridine-8-carboxamide]
8.37 | 6.89 | CC(C)C(c1ccc(F)cc1)n1cc(-c2cc(C(=O)N[C@@H](C)CO)c3nc(N)nn3c2)cn1 (mixture of isomers) [Example I-160, 2-Amino-6-{1-[1-(4-fluorophenyl)-2-methylpropyl]-1H-pyrazol-4-yl}-N-[(2S)-1-hydroxypropan-2-yl][1,2,4]triazolo[1,5-a]pyridine-8-carboxamide]
8.59 | 7.74 | CCC(c1ccc(C(F)(F)F)nc1)n1cc(-c2cc(C(=O)N[C@H]3CCOC3)n3nc(N)nc3c2)cn1 (mixture of isomers) [Example I-177, 2-Amino-N-[(3S)-tetrahydrofuran-3-yl]-7-(1-{1-[6-(trifluoromethyl)pyridin-3-yl]propyl}-1H-pyrazol-4-yl)[1,2,4]triazolo[1,5-a]pyridine-5-carboxamide]
8.80 | 8.21 | CC(C)C(c1ccc(C(F)(F)F)nc1)n1cc(-c2cc(C(=O)N[C@H]3CCOC3)n3nc(N)nc3c2)cn1 (mixture of isomers) [Example I-180, 2-Amino-7-(1-{2-methyl-1-[6-(trifluoromethyl)pyridin-3-yl]propyl}-1H-pyrazol-4-yl)-N-[(3S)-tetrahydrofuran-3-yl][1,2,4]triazolo[1,5-a]pyridine-5-carboxamide]
8.77 | 8.22 | Nc1nc2cc(-c3cnn(C(c4ccc(C(F)(F)F)nc4)C4CCOCC4)c3)cc(C(=O)N[C@H]3CCOC3)n2n1 (mixture of isomers) [Example I-183, 2-Amino-N-[(3S)-tetrahydrofuran-3-yl]-7-(1-{tetrahydro-2H-pyran-4-yl[6-(trifluoromethyl)pyridin-3-yl]methyl}-1H-pyrazol-4-yl)[1,2,4]triazolo[1,5-a]pyridine-5-carboxamide]
8.21 | 7.80 | CCC(c1ccc(OCC(F)(F)F)nc1)n1cc(-c2cc(C(=O)N[C@H]3CCOC3)n3nc(N)nc3c2)cn1 (mixture of isomers) [Example I-186]
8.12 | 7.52 | CCC(c1ccc(C(F)(F)F)nc1)n1cc(-c2cc(C(=O)NC(C)(C)CO)c3nc(N)nn3c2)cn1 (racemic) [Example I-163, 2-Amino-N-(1-hydroxy-2-methylpropan-2-yl)-6-(1-{1-[6-(trifluoromethyl)pyridin-3-yl]propyl}-1H-pyrazol-4-yl)[1,2,4]triazolo[1,5-a]pyridine-8-carboxamide]
